Laboratory results published in article PMC7686308, “Overcoming the blood–brain barrier by Annexin A1-binding peptide to target brain tumours” (British Journal of Cancer, 2020).
One block for each molecule: values may come before it. Ends that are not written are not given here.

Key:
[1] = system: C6 cells; assay: Cytotoxicity on C6 cells (CellTiter Glo); type: cell-based, rat; conditions: C6, 2 days, CellTiter Glo, GraphPad Prism; for IC50: unit from plot axis
Procedure: (§1) Drug concentration (OM) Drug concentration ( nM) […]
(§2) Supplementary Fig 7 . Cytotoxicity of peptide-conjugated SN38, free peptide s and unconjugated SN-38 and irinotecan (CPT-11) on C6 and B16 cells cultured in vitro. Rat glioma C6 and mouse melanoma B16 cells were treated with reagents shown along the top panels at the concentration indicated and cultured for 2 days. Cell viability was determined by a CellTiter Glo (Promega) assay. The IC50 of each reagent was determined using GraphPad Prism program. N.D.: not determined.

[2] = system: B16 cells; assay: Cytotoxicity on B16 cells (CellTiter Glo); type: cell-based, mouse; conditions: B16, 2 days, CellTiter Glo, GraphPad Prism; for IC50: unit from plot axis
Procedure: as §1, §2

[3] = system: B16-Luc brain and subcutaneous tumours; assay: B16-Luc dual-tumour model in C57BL/6 mice; type: in vivo, mouse (C57BL/6); conditions: irinotecan 50 μmoles/kg i.v. daily, 6 days
Procedure: C6-Luc cells (5 × 10^4 suspended in 2 μl PBS) were injected into C57BL/6 mouse brain striatum using a stereotaxic frame as described previously.[21] Seven days later, mice underwent imaging for luciferase-expressing tumours. To do so, 100 μl luciferin (30 mg/ml PBS) was injected peritoneally. Mice were then anesthetised under isoflurane gas (20 ml/min) supplemented with oxygen (1 ml/min) and placed under a camera equipped with a Xenogen IVIS 200 imager at both the SBP and AIST animal facilities. Photon numbers were measured for 1–10 sec or for 1 min. For the dual-tumour model, C6-Luc cells were similarly injected into the brain of NOD-SCID mice. When a brain tumour became detectable by IVIS imager, C6-Luc cells (2 × 10^5 suspended in 100 μl PBS) were injected subcutaneously into the dorsal flank of the same mice. Photon numbers in brain and subcutaneous tumours were measured using the IVIS imager. The dual-tumour model was also produced using B16-Luc cells in the isogeneic C57BL/6 mouse. B16-Luc cells (5 × 10^4) were injected into brains of 8–10-weeks-old C57BL/6 female mice as described above for C6-Luc cells. When brain tumours became detectable, B16-Luc cells (2 × 10^5 cells) were injected subcutaneously into the dorsal flank of the same mouse.
IF7C(RR)-SN38 was injected intravenously through the tail vein into tumour-bearing mice once photon number of C6-Luc brain tumour reached 5 × 10^4, which usually occurred after 2 weeks. IF7C(RR)-SN38 (142 μg or 0.0567 μmoles) dissolved in 10 μl dimethylsulfoxide (DMSO) diluted with 100 μl of 50% Cremophore EL in ethanol plus 90 μl PBS was injected intravenously through the tail vein. As the average body weight of a mouse was 18 g, IF7C(RR)-SN38 dose per injection was 3.15 μmoles/kg. For B16-Luc brain tumours, IF7C(RR)-SN38 formulated with Cremophore EL was used at the dosage 7.0 μmoles/kg. Irinotecan (CPT-11), a water soluble SN38 prodrug, was dissolved in PBS and intravenously injected into mice at 50 μmoles /kg. In another set of experiments, brain tumour-bearing mice were treated with IF7C(RR)-SN38 (100 μg or 0.0412 μmoles) dissolved in 10 μl DMSO followed by dilution with 100 μl 10% Solutol HS15 in water. In that case, drug dosage was 2.5 μmoles/kg. Similarly formulated C(RR)-SN38 served as control.
Fig. 4 Effect of IF7C(RR)-SN38 on the dual-tumour model mice. a Dual-tumour model was established with C6-Luc cells in NOD-SCID mice. C6-Luc cells were grown both in brain and under the skin of mice. When tumours in brain and subcutaneous grew by showing photon number more than 2×10^4, IF7C(RR)-SN38 (3.15 μmoles/kg) was injected intravenously daily through tail vein for 9 days. b Effect of IF7C(RR)-SN38 on a dual-tumour model with B16-Luc melanoma cells in C57BL/6 mice. Growth of B16-Luc cells were monitored as in a similar manner as in a, followed by intravenous injection with either IF7C(RR)-SN38 (7.0 μmoles/kg), irinotecan (CPT-11) (50 μmoles/kg) or buffer control daily for 6 days. The drug was diluted in Cremophore EL. In each a and b, error bars denote means ± SEM. Statistical analysis was assessed by Student’s t-test.

[4] = system: ANXA1 exhibiting a free N-terminus; assay: FCS binding to ANXA1 with free N-terminus; set-up: species or system human; conditions: IF7C-A546, 37 °C, 1 h, increase in diffusion time
Procedure: (§3) A mixture of IF7C-A546 with Anxa1 or MC16 (50 μl) was loaded into each well of a 96-well plate and incubated at 37 °C for 1 h. FCS was performed with the MF20 analytical system (Olympus) using a 543 nm He–Ne laser for illumination. Each sample was measured five times with a data acquisition time of 10 sec per measurement. IF7C(RR) binding was defined as an increase in translational diffusion time relative to a control.
(§4) Fig. 2 Binding of IF7 to the ANXA1 N-terminal domain and full-length ANXA1 protein in vitro. a Plate binding assay of N-terminal biotinylated IF7C(RR) to human MC16 peptide and its mutants. Each synthetic MC16 and its mutant peptide (10 nmoles) was bound to maleimide-activated plastic well through its C-terminal cysteine residue. Biotinylated IF7C(RR) peptide (1 μg/mL) was added to each well and binding of biotinylated peptide was detected by peroxidase-conjugated streptavidin and peroxidase colour reaction. b FCS analysis of IF7 with ANXA1 (left) and with MC16 peptides (right) in solution. […] The proposed model was further validated by dG scoring, which was calculated using MOE software with GBVI/WSA, a program allows us to compare calculated and observed energetics.[59] The IF7 docking pose was calculated to be −3.7 kcal/mol.

[5] = system: N-terminally His-tagged ANXA1; assay: FCS binding to N-terminally His-tagged ANXA1; set-up: species or system human; conditions: IF7C-A546, 37 °C, 1 h, diffusion time
Procedure: as §3, §4

[6] = biological target: T1, MC16 (Annexin A1 N-terminal peptide), tetrameric (Homo sapiens); assay: QCM
T1 chain: MAMVSEFLKQAWFIEC

[7] = biological target: T2, Annexin A1 (Homo sapiens, UniProt P04083); assay: QCM
T2 chain: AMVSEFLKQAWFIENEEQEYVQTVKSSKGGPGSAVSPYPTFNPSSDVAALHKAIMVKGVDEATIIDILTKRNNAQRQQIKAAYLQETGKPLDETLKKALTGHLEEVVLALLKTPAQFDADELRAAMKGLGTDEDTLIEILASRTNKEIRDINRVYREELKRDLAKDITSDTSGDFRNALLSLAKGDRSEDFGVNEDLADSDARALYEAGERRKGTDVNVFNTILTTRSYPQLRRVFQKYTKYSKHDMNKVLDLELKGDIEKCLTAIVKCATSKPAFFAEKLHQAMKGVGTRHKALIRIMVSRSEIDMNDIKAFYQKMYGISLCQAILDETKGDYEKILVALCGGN

Molecule: CCc1c2c(nc3ccc(OC(=O)N4CCC(N5CCCCC5)CC4)cc13)-c1cc3c(c(=O)n1C2)COC(=O)[C@]3(O)CC [Irinotecan]
logIC50 [1]: 4.103
IC50 ([1]; Rattus norvegicus, 48 h): 12700 nM
logIC50 [2]: 4.443
IC50 ([2]; Mus musculus, 48 h): 27700 nM
brain tumour growth (photon number) [3]: minimally suppressed brain tumour growth
subcutaneous tumour growth (photon number) [3]: suppressed subcutaneous tumour growth

Molecule: CCc1c2c(nc3ccc(O)cc13)-c1cc3c(c(=O)n1C2)COC(=O)[C@]3(O)CC [SN-38]
logIC50 [1]: 1.433
IC50 [1]: 27.1 nM
logIC50 [2]: 1.499
IC50 [2]: 31.6 nM

B1: IF7C(RR) peptide (peptide)
chain: IFLLWQRCRR
modifications: not fully specified (residue 8); also: tetramer on 4-arm PEG via Cys
Kd [6]: 247 nM

The next lines start with results.

binding in solution to N-terminally His-tagged ANXA1 [5]: did not significantly increase
Molecule: IFLLWQRCRR [IF7C(RR), IF7 with C-terminal cysteine extended by two arginines]
binding in solution to untagged ANXA1 [4]: increased significantly compared to the control

Kd [7]: 60.1 nM
B2: IF7C(RR) peptide (peptide)
chain: IFLLWQRCRR
